Reference: US8440209B2, “Adhesive for medical applications and means for haemostasis” (Stryker Trauma GmbH, priority 2006, dated 2013)

Tested on: S. aureus ATCC 6538
Experiment: agar diffusion test according to Burkhardt
Type: cell-based
Conditions: 18+2 hours at 36° C.
Description: The agar diffusion test according to Burkhardt (Burkhardt, F. (Hrsg.) Mikrobiologische Diagnostik. Georg-Thieme Verlag Stuttgart, New York 1992, p. 724) was carried out. Mueller-Hinton II-Agar in Stacker Petri dishes (Becton Dickinson Microbiology Systems, Cockeysville, USA) were employed in the test for 15. The strain S. aureus ATCC 6538 was selected as test strain. The initial seed of this test strain was chosen such that after […] of incubation, closely standing, but not confluent, single colonies had developed. After drying of the seeded culture media, the treated collagen non-woven material was applied to the agar surface. After 18+2 hours incubation at 36° C., the inhibition sphere was measured.

Gentamycine
Inhibition sphere against S. aureus ATCC 6538 (Treatment 20%): 24 | Inhibition sphere against S. aureus ATCC 6538 (Treatment 40%): 38
